Source: PMC5344036 (Molecular imaging and biology : MIB : the official …, 2014)
Read-outs that look alike come from different tables or passages of the source.

Assays:
α7-nAChR [1] = target: α7-nAChR (Mus musculus, UniProt P49582); type: in vivo, CD1 mice; conditions: 90 min post-tracer
α7-nAChR [2] = conditions: baboon brain, prior studies of the authors; cited from earlier work
α7-nAChR [3] = conditions: monkey PET, injection of SSR180711; cited from earlier work
α7-nAChR [4] = conditions: mouse brain, prior studies of the authors; cited from earlier work
α7-nAChR [5] = conditions: rat hippocampus or human α7-nAChR recombinant membranes; cited from earlier work
α7-nAChRs = conditions: read-out: equilibrium dissociation constant KD; rat; cited from earlier work
α7-nAChR [6] = target: T1, α7-nAChR (Homo sapiens, UniProt P36544); conditions: single human PET experiment; cited from earlier work
α7-nAChR [7] = target: T1, α7-nAChR; experiment: Human PET brain imaging with [^18F]ASEM; type: in vivo
[8] = [^18F]ASEM metabolite analysis in human plasma; type: in vivo; conditions: for parent [^18F]ASEM metabolized: human plasma

Sequence of α7-nAChR (Mus musculus, UniProt P49582) (P49582 23-502): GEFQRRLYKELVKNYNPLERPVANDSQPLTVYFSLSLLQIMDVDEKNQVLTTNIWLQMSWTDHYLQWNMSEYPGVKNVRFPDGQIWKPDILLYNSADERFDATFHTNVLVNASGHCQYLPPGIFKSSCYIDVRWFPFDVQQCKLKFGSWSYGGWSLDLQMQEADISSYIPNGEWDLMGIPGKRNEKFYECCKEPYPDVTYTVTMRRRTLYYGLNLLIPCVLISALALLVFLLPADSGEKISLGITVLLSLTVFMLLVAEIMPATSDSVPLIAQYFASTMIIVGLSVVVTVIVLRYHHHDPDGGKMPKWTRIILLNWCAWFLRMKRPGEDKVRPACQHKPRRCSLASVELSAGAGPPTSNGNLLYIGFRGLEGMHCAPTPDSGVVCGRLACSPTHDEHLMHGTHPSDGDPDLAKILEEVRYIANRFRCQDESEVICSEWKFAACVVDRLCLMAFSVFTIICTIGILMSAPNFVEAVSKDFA
T1 sequence (P36544 23-502): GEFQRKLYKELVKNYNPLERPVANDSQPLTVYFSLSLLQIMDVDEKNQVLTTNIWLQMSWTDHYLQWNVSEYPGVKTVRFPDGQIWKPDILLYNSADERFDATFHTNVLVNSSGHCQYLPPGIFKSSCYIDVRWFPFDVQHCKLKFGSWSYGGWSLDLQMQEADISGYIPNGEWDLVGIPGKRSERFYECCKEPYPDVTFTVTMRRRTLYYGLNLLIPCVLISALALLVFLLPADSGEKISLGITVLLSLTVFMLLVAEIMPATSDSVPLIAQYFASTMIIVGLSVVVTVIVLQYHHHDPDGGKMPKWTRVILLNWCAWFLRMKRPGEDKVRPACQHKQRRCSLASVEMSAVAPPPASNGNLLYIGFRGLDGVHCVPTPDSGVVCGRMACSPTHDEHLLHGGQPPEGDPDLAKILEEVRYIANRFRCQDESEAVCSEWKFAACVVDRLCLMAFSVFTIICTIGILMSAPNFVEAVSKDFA

Structure (SMILES): COc1ccc(/C=C2\CCCN=C2c2cccnc2)c(OC)c1 [DMXB-A, Dimethoxybenzylidene anabaseine]
- blockade of [^18F]ASEM binding (α7-nAChR [1]; 3 mg/kg IP, hippocampus, p<0.05): 28%
- blockade of [^18F]ASEM binding (α7-nAChR [1]; 10 mg/kg IP, hippocampus, cortex, subcolliculus, p<0.01): 50–70%
- blockade of [^18F]ASEM binding (α7-nAChR [1]; 0.1, 0.3 and 1 mg/kg IP): did not show significant blockade

Structure (SMILES): O=C(Oc1ccc(Br)cc1)N1CCN2CCC1CC2 [SSR180711]
- blockade of [^18F]ASEM binding (α7-nAChR [2]): successfully blocked
- reduction of [^11C]CHIBA-1001 radioactivity in the high uptake regions (α7-nAChR [3]): 25–30%
- blockade of [^18F]ASEM binding (α7-nAChR [4]): successfully blocked

Structure (SMILES): Cc1ccc(OC(=O)N2CCN3CCC2CC3)cc1 [[^3H]CHIBA-1001]
- Kd (α7-nAChR [5]): 0.12 to 0.18 µM
- Kd (α7-nAChRs): 0.193 µM

Structure (SMILES): [11CH3]c1ccc(OC(=O)N2CCN3CCC2CC3)cc1 [[^11C]CHIBA-1001]
- target-to-non-target ratios in the brain regions (α7-nAChR [6]): < 1.3

Structure (SMILES): O=S1(=O)c2cc(N3CCN4CCC3CC4)ccc2-c2cccc([18F])c21 [[^18F]ASEM, 3-(1,4-diazabicyclo[3.2.2]nonan-4-yl)-6-[^18F]fluorodibenzo[b,d]thiophene 5,5-dioxide]
- distribution volume VT, lower-binding regions (α7-nAChR [7]; entorhinal cortex, cerebellum, caudate, corpus callosum, PRGA): < 15 ml/ml
- time of peak brain uptake post-injection (α7-nAChR [7]; human brain, after IV bolus injection): 15 min
- test-retest variability (TRV) of VT (α7-nAChR [7]; medium and high VT regions, two subjects, two scans separated by a few days): 10.8±5.1%
- time of plasma TAC peak ([8]; human arterial plasma): ≤ 1 min
- parent [^18F]ASEM metabolized ([8]; 30 min post-injection): 52.6±12.9%
- parent [^18F]ASEM metabolized ([8]; 90 min post-injection): 83.5±9.7%
